# Data reported in patent publication US20150072418A1, “HCV GENOTYPE 4D REPLICONS” (priority 2013, published 2015).
# Assays:
# [1] = test system: GT4d (34R + 232G-pool) replicon; test: HCV replicon susceptibility to antiviral agents, GT4d (34R + 232G-pool); type: cell-based; conditions: Hepatitis C virus, GT4d replicon with Q34R + S232G, n = 2
# Procedure: (§1) All of these HCV inhibitors, as well as any other candidate agents, can be tested with the disclosed methods for their efficacy in inhibiting HCV genotype 4d. The cells are then incubated at a suitable temperature for a period time to allow the replicons to replicate in the cells. The replicons can include a reporter gene such as luciferase and in such a case, at the end of the incubation period, the cells are assayed for luciferase activity as markers for replicon levels. Luciferase expression can be quantified using a commercial luciferase assay.
# (§2) Luciferase or NS3 protease activity level is then converted into percentages relative to the levels in the controls which can be untreated or treated with an agent having known activity in inhibiting the HCV.
# (§3) Stable GT4d subgenomic replicons were prepared to include these double mutations (FIG. 12). Ten micrograms of in vitro transcribed 4d Rluc-Neo RNA were transfected into 1C cells. G418 selection started 2 days after transfection and plates were fixed and stained after 2 weeks of G418 selection. […] The luciferase activity of these stable replicon cells of these replicons were further compared to GT4a replicons and GT1b.
# (§4) Another comparison was made, with respect to each replicon's susceptibility against HCV antiviral agents.
# [2] = test system: GT4d (34R + 232I-pool) replicon; test: HCV replicon susceptibility to antiviral agents, GT4d (34R + 232I-pool); type: cell-based; conditions: Hepatitis C virus, GT4d replicon with Q34R + S232I, n = 2
# Procedure: as §1, §2, §3, §4
# GT1b replicon = test: HCV replicon susceptibility to antiviral agents, GT1b; type: cell-based; conditions: Hepatitis C virus, n = 2
# Procedure: as §1, §2, §4
# GT4a replicon = test: HCV replicon susceptibility to antiviral agents, GT4a; type: cell-based; conditions: Hepatitis C virus, n = 2
# Procedure: as §1, §2, §4
# [3] = test system: GT 4d-Neo replicons (4d-2Re and 4d-3Re), NS3 activity; test: Inhibition of NS3 activity of GT 4d-Neo replicons from pooled colonies; type: cell-based, Hepatitis C virus; conditions: 4d-3Re and 4d-2Re replicon cells; FIG. 3A-B
# Description: Alternately, efficacy of the HCV inhibitor can be measured by the expression or activity of the proteins encoded by the replicons. One example of such proteins is the NS3 protease, and detection of the protein expression or activity can be carried out with methods known in the art, e.g., Cheng et al., Antimicrob Agents Chemother 55:2197-205 (2011).
# as §2
# Two candidate HCV inhibitors, Compound A (FIG. 3A) and B (FIG. 3B) were used to test the inhibition of NS3 activities of the replicons isolated from pooled colonies (4d-2Re and 4d-3Re, see FIG. 2). […] Also observed was that NS3 activity was higher in 4d-3Re than 4d-2Re.
# 4000 cells/well were plated in 96-well white plates. NS3 activity was read 72 hours after plating. Values shown in FIG. 4 are mean of DMSO treated well from 3 plates.
smiles,measurement,setting,value
"CC(C)OC(=O)[C@H](C)NP(=O)(OC[C@H]1O[C@@H](n2ccc(=O)[nH]c2=O)[C@](C)(F)[C@@H]1O)Oc1ccccc1 (stereo partly drawn) [Compound A, isopropyl (2S)-2-[[[(2R,3R,4R,5R)-5-(2,4-dioxopyrimidin-1-yl)-4-fluoro-3-hydroxy-4-methyl-tetrahydrofuran-2-yl]methoxy-phenoxy-phosphoryl]amino]propanoate]",EC50,[1],33 nM
same,EC50,[2],37 nM
same,EC50,GT1b replicon,158 nM
same,EC50,GT4a replicon,70 nM
same,inhibition of NS3 activity,[3],dose dependent inhibition
